Measured values as given in ChEMBL document CHEMBL1201862, “PubChem BioAssay data set” (2004).
Calls of active or inactive are those of the source.

Tests used:
Danio rerio = assay: In Vivo Angiogenesis Dose-Response Confirmation. [Related pubchem assays: 732 (Assay preceding this confirmatory assay.)]; type: functional, organism-based
[1] = enhancers of respiration in Yfh1-depleted yeast, dose response, Friedreich's ataxia, plus single-dose screen (AID 1465); type: functional;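 further: yeast depleted of Yfh1p frataxin homolog grown on glycerol needing respiration; WST-1 tetrazolium dye reduction as measure of cellular dehydrogenase metabolic activity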
[2] = target: T1, Ubiquitin-conjugating enzyme E2 N (Homo sapiens, UniProt P61088); type: functional
T1 sequence (P61088 whole entry): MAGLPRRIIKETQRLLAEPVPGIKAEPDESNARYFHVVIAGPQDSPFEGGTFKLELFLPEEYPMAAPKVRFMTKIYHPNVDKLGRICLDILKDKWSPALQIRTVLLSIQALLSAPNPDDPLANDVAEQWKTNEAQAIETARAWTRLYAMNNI

Bcl-2-related protein A1 = target: T2, Bcl-2-related protein A1 (Mus musculus, UniProt Q07440); type: functional;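 further: confirmatory dose–response counterscreen on Bfl-1, used to check hits from a UBC13 polyubiquitin inhibitor campaign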
T2 sequence (Q07440 whole entry): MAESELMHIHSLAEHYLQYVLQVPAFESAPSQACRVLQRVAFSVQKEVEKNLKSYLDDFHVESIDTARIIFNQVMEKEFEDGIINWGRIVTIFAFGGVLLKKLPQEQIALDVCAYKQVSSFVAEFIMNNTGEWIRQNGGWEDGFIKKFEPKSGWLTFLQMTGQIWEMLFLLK

[3] = target: T1, Ubiquitin-conjugating enzyme E2 N; type: functional; remark: listed apart in the source
[4] = target: T3, Polyadenylate-binding protein 1 (Homo sapiens, UniProt P11940); assay: PABP1 MLLE–PAM2 interaction inhibitors, dose response, miRNA deadenylation inhibitor project, biochemical, fluorescence polarization, Cy5-PAM2 peptide, secondary (AID 602260); type: functional; details: read-out: IC50_Mean
[5] = target: T3, Polyadenylate-binding protein 1; assay: PABP1 MLLE–PAM2 binding inhibitor potency, dose response, biochemical, fluorescence polarization, FITC-PAM2 peptide (AID 602259); type: functional; details: read-out: IC50_Mean
[6] = target: Protein-tyrosine kinase 2-beta (Homo sapiens, UniProt Q14289);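 further: potency of inhibitors of PYK2 kinase phosphorylation of poly-GT substrate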
[7] = Luminescent dose response cell-based high throughput screening assay for inhibitors of the Janus kinase 2 mutant JAK2V617F. [Related pubchem assays: 1446 (Primary screen.), 1521 (Confirmation assay.), 1486 (Counter screen.)]; type: functional
Paired box protein Pax-8 = Paired box protein Pax-8 (Homo sapiens, UniProt Q06710); assay: inhibitors of PAX8-driven TPO luciferase reporter, dose response, RMG-I cells, cherry-pick (AID 687027); type: functional, cell-based;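 further: luciferase reporter driven by Pax8 target thyroperoxidase promoter measured by SteadyGlo luminescence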
[8] = non-specific cell cytotoxicity, dose response, cytotoxicity control for PAX8 inhibitor project, plate reader, dry powder samples (AID 743021); type: functional, cell-based
[9] = target: Induced myeloid leukemia cell differentiation protein Mcl-1 (Homo sapiens, UniProt Q07820); assay: MCL1-BIM BH3 interaction inhibitors, dose response, biochemical, fluorescence polarization, BIM-BH3 peptide, 1536-well (AID 2217)
Hexokinase HKDC1 = target: T4, Hexokinase HKDC1 (Homo sapiens, UniProt Q2TB90); assay: HKDC1 hexokinase inhibitors, dose response, biochemical, W721R variant (AID 504729); type: functional
T4 sequence (Q2TB90 whole entry): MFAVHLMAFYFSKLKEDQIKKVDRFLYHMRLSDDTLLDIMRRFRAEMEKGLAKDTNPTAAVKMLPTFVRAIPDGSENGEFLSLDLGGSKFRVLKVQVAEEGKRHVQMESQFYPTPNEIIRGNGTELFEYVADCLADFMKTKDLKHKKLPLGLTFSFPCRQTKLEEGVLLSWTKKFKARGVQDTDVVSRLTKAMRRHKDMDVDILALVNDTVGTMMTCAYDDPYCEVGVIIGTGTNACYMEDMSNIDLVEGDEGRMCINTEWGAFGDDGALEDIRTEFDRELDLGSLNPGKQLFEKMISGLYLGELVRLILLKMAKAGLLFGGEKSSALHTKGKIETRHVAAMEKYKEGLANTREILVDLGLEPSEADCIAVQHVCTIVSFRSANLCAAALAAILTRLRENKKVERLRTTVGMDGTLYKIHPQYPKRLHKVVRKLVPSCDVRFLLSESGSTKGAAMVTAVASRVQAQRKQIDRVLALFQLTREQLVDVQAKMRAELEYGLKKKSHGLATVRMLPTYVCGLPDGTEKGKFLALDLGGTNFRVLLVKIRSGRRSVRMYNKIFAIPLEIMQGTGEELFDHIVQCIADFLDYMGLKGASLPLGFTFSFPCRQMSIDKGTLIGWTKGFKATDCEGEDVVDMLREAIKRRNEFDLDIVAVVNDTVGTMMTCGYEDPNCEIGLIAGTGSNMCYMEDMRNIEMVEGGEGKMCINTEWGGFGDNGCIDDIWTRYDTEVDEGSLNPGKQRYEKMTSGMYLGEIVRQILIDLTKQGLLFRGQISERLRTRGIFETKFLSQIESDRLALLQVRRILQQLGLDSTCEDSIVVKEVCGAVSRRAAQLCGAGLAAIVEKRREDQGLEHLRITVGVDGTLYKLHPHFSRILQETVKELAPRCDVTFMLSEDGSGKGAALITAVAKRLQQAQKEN

[10] = target: Heat shock protein HSP 90-alpha (Homo sapiens, UniProt P07900); type: functional, organism-based
Bcl-2-like protein 1 = Bcl-2-like protein 1 (Homo sapiens, UniProt Q07817); assay: BCL-XL inhibitors, dose response, selectivity assay for MCL1 inhibitor project, biochemical, fluorescence polarization, 1536-well (AID 2218)
[11] = NIH-3T3 fibroblast cytotoxicity, dose response, cytotoxicity control, cell-based, fluorescence, Alamar Blue, secondary assay (AID 2327); type: functional;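 further: NIH-3T3 mouse fibroblasts cultured with fluconazole at 8 µg/mL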
[12] = C. albicans growth with fluconazole, confirmation, fluorescence, retest (AID 2467); type: functional, cell-based
[13] = A cytotoxicity screen of small molecule inhibitors of the PhoP region in Salmonella typhi identified in the primary screen. [Related pubchem assays: 1850, 1864, 1985 ]; type: functional
[14] = M. tuberculosis H37Rv growth inhibitors, H37Rv strain (AID 1626); type: functional
[15] = Fluorescence-based cell-based high throughput dose response assay for inhibitors of the interaction of nucleotide-binding oligomerization domain containing 2 (NOD2) and the receptor-interacting serine-threonine kinase 2 (RIPK2).; type: functional; details: Homo sapiens
Fatty acid synthase [16] = target: T5, Fatty acid synthase (Homo sapiens, UniProt P49327); assay: FAS thioesterase domain inhibitors, dose response, biochemical, endpoint fluorescence intensity, uHTS hits (AID 624327); type: functional;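 further: fluorescence from hydrolysis of an O-methyl fluorescein acyl ester substrate by the enzyme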
[17] = target: Sphingosine 1-phosphate receptor 1 (Homo sapiens, UniProt P21453); type: functional;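 further: Tango beta-arrestin reporter U2OS cells stimulated with S1P near its EC80; inhibitor potency meaning antagonism of receptor activation by the natural agonist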
[18] = target: T6, Replicative DNA helicase DnaB (Mycobacterium tuberculosis, UniProt P9WMR3); assay: DnaB intein splicing inhibitors, dose response, biochemical, cell-free fluorescence (AID 449749); type: functional
T6 sequence (P9WMR3 whole entry): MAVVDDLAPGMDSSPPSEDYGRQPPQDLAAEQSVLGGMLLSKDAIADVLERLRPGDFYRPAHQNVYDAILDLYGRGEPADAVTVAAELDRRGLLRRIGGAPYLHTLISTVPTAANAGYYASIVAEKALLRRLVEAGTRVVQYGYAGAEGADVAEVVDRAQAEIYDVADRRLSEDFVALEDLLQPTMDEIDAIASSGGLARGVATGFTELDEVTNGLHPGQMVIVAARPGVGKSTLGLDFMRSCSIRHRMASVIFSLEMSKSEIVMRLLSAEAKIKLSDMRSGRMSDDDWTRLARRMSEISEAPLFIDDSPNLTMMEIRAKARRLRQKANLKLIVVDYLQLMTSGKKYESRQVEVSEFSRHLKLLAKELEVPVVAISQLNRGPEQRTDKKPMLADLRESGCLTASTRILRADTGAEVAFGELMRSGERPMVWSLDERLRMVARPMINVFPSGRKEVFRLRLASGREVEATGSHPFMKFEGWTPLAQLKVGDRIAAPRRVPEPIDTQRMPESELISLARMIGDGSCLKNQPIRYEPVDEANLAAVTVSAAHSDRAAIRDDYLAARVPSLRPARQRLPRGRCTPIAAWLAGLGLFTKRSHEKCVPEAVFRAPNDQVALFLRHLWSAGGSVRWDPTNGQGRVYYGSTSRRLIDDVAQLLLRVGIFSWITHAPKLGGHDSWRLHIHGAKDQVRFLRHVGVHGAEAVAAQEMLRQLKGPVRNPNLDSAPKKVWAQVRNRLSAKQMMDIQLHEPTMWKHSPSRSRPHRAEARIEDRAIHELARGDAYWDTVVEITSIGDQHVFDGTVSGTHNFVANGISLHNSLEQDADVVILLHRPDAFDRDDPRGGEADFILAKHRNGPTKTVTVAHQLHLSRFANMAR

[19] = HEp-2 cell cytotoxicity, dose response, cytotoxicity control for RSV inhibitor project, HTS (AID 2410); type: functional; details: human respiratory syncytial virus
Fatty acid synthase [20] = target: T5, Fatty acid synthase; assay: FAS thioesterase domain inhibitors, dose response, biochemical, kinetic fluorescence intensity (AID 624326); type: functional;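 further: rate of fluorescence rise from hydrolysis of a fluorogenic O-methyl fluorescein ester substrate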
[21] = target: T7, Sphingosine 1-phosphate receptor 4 (Homo sapiens, UniProt O95977); assay: Fluorescence dose response cell-based high throughput screening assay for antagonists of the Sphingosine 1-Phosphate Receptor 4 (S1P4). [Related pubchem assays: 1524 (Confirmation in triplicates.), 1510 (Primary screen.)]; type: functional
T7 sequence (O95977 whole entry): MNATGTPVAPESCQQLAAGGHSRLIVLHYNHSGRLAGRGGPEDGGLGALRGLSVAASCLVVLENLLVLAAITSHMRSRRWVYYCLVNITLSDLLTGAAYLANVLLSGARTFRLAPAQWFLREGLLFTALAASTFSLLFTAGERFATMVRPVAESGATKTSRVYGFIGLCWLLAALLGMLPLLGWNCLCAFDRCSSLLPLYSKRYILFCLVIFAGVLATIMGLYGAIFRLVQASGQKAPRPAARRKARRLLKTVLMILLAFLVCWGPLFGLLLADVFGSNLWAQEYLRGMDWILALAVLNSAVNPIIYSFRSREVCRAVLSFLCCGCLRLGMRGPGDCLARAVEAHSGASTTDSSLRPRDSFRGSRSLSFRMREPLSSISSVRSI

Protein RecA = target: T8, Protein RecA (Mycobacterium tuberculosis, UniProt P9WHJ3); assay: Fluorescence Cell-Free Homogeneous Dose Retest to Identify Inhibitors of RecA-Intein Splicing Activity. [Related pubchem assays (depositor defined):AID2097, AID2223, AID489010, AID492950]; type: functional
T8 sequence (P9WHJ3 whole entry): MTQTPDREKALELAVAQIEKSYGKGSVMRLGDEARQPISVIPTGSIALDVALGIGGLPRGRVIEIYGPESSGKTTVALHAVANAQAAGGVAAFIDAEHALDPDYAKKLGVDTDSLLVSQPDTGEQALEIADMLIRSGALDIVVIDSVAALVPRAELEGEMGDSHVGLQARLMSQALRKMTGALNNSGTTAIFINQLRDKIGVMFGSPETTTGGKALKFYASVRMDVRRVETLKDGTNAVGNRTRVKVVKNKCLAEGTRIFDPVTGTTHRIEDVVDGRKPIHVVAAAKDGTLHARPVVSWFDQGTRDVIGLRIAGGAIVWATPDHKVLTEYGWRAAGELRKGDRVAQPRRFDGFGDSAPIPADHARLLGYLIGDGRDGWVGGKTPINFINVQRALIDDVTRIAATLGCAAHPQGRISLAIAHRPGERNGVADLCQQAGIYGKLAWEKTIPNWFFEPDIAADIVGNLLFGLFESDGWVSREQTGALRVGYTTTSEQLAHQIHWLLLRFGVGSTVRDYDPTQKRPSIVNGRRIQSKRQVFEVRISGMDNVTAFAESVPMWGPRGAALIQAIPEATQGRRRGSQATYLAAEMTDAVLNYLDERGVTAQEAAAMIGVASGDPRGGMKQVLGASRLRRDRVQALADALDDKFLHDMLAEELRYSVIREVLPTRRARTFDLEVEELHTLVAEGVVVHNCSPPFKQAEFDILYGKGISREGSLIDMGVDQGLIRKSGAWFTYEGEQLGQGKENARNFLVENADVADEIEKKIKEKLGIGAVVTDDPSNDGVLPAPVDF

Beta Lactamase = Beta Lactamase (Pseudomonas aeruginosa, UniProt Q932Y6); assay: beta-lactamase reporter inhibitor potency, dose response, artefact control for NOD2-RIPK2 interaction inhibitor project, BLA reporter cells, FRET fluorescence (AID 651552); type: functional, cell-based
[22] = target: T7, Sphingosine 1-phosphate receptor 4; assay: Late stage fluorescence dose response cell-based screening assay for antagonists of the Sphingosine 1-Phosphate Receptor 4 (S1P4). [Related pubchem assays: 1524 (Confirmation screen (S1P4 antagonists).), 1510 (Primary screen (S1P4 antagonists).), 1853 (Summary AID (S1P4 antagonists).), 1692 (Dose response screen (S1P4 antagonists).)]; type: functional

T5 sequence (P49327 whole entry, the tested form may be a part): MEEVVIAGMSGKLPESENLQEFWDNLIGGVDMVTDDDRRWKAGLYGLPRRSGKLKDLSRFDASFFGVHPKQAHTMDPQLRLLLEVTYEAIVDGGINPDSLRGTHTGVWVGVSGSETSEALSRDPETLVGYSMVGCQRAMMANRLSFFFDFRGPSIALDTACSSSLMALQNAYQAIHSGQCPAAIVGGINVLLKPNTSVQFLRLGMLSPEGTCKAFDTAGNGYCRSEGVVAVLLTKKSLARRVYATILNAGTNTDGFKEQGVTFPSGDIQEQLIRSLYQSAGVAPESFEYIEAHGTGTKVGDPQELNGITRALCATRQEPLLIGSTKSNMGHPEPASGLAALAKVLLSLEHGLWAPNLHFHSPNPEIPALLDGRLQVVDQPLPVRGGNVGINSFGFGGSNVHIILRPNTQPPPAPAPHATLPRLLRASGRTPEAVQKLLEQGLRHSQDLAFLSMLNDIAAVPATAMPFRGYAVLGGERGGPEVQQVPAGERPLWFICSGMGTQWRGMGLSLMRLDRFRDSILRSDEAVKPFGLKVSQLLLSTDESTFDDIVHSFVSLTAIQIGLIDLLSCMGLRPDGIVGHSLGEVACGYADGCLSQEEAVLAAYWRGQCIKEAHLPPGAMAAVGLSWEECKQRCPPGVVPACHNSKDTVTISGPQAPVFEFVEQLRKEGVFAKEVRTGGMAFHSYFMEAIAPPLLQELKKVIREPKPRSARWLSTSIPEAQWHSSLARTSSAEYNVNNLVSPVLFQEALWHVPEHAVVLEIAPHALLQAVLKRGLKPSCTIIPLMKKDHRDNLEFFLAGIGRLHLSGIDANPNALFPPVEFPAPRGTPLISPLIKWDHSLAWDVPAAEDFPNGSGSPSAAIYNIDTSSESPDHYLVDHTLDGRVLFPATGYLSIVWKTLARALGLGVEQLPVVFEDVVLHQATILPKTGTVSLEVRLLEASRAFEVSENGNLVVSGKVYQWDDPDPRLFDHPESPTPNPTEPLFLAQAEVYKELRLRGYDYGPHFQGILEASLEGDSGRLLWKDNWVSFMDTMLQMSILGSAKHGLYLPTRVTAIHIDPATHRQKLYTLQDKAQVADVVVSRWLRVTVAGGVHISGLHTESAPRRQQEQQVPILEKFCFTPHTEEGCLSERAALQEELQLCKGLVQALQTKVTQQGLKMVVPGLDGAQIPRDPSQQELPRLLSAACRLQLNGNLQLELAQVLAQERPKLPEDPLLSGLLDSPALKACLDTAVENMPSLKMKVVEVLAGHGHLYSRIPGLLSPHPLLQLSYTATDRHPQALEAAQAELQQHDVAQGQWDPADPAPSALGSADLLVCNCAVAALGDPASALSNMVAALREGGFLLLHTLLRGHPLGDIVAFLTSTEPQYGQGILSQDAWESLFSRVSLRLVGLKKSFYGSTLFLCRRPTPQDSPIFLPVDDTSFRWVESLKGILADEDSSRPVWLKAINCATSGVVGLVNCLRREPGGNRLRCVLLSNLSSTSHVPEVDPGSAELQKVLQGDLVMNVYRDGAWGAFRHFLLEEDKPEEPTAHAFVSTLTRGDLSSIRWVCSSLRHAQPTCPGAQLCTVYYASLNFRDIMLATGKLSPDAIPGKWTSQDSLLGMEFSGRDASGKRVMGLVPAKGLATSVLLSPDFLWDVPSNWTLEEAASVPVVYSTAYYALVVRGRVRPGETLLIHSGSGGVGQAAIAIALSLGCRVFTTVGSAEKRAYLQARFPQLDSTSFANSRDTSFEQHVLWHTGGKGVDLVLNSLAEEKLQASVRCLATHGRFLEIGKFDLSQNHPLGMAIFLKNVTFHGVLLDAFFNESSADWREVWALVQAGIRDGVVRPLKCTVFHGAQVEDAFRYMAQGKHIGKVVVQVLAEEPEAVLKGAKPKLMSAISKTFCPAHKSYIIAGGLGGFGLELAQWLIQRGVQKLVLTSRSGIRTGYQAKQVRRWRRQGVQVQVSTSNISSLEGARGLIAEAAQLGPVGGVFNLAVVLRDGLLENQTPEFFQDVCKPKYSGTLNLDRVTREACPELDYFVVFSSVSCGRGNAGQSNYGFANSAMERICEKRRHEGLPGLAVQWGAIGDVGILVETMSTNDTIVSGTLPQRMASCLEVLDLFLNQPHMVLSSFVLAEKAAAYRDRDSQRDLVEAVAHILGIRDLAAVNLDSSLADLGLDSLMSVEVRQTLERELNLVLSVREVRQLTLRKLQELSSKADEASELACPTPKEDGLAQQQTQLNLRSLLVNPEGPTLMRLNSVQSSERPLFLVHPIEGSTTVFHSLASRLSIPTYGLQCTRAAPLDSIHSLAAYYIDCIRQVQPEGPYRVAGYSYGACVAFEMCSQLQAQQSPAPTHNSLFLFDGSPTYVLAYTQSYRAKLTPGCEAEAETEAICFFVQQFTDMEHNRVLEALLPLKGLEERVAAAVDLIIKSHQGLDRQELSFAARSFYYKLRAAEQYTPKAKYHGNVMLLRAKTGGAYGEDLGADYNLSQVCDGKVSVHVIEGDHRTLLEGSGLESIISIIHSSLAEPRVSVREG
T3 sequence (P11940 whole entry): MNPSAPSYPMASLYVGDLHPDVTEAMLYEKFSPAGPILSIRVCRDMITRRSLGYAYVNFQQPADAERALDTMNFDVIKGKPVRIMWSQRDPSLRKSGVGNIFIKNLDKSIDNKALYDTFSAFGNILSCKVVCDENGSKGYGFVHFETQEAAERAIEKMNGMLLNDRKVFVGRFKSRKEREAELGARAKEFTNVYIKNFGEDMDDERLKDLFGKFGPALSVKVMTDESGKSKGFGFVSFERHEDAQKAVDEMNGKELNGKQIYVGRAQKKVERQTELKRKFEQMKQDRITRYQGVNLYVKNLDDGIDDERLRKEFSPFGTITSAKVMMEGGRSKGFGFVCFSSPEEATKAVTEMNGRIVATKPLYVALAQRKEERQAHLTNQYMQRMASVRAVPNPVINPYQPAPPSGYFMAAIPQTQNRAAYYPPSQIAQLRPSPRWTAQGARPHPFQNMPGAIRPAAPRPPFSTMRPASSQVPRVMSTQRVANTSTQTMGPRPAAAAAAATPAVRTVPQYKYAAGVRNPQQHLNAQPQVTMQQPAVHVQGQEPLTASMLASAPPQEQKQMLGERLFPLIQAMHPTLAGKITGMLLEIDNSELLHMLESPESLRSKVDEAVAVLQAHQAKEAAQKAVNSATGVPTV
Sequence of Sphingosine 1-phosphate receptor 1 (P21453 whole entry): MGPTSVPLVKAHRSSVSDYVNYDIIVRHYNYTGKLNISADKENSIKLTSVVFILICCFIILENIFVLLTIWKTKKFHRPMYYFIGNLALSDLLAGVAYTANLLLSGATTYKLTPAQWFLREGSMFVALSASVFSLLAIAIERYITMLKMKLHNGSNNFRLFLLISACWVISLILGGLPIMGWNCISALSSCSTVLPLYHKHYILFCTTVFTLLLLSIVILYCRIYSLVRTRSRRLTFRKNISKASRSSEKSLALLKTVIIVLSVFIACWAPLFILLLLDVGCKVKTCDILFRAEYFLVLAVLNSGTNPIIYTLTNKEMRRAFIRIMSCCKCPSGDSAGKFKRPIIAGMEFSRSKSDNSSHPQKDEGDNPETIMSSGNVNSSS
Sequence of Paired box protein Pax-8 (Q06710 whole entry): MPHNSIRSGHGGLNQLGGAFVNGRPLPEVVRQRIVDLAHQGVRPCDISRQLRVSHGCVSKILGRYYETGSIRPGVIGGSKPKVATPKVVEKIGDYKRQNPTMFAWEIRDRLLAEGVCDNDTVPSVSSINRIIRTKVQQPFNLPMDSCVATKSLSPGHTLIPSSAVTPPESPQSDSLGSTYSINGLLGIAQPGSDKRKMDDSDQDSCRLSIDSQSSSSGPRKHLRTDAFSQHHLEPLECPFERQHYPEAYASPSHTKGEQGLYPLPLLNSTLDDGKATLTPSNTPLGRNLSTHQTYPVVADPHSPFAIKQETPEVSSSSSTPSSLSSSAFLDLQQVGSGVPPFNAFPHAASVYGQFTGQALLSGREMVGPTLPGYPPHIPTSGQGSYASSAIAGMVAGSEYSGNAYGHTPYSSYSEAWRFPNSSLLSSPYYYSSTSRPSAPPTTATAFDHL
Sequence of Bcl-2-like protein 1 (Q07817 whole entry): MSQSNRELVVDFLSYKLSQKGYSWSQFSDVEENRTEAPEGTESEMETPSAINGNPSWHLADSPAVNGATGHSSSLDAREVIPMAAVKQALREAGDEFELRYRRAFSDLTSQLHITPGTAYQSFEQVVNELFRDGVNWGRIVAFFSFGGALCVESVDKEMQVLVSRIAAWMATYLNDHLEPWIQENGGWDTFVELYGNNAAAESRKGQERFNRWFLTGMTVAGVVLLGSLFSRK
Sequence of Beta Lactamase (Q932Y6 whole entry): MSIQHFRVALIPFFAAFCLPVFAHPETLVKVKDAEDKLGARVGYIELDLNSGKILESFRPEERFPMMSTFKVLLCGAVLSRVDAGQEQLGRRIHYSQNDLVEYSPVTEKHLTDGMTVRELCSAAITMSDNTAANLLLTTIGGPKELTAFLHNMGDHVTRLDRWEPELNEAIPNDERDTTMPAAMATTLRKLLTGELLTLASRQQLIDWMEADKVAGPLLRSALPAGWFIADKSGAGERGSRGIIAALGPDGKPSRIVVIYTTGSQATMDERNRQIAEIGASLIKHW
Sequence of Induced myeloid leukemia cell differentiation protein Mcl-1 (Q07820 whole entry): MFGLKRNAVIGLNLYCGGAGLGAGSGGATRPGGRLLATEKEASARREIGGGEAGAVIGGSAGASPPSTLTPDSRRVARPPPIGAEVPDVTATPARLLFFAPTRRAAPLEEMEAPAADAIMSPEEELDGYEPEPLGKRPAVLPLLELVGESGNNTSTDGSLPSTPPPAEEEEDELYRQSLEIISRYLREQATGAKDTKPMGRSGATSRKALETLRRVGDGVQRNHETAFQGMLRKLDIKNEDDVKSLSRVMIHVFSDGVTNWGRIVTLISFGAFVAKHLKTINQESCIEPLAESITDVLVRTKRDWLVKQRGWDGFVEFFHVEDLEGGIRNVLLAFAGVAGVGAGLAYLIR

Cc1ccc2c(c1)/C(=C1/Nc3ccc(Br)cc3/C1=N\OCCN1CCNCC1)C(=O)N2
IC50 (Danio rerio): 3.28 µM (not active)

COc1ccc(C(=O)NC(=S)NNC(=O)c2ccc(NC(C)=O)cc2)cc1Br
EC50 [1]: > 100 µM (active)
IC50 [2]: 18.1 µM (active)
IC50 (Bcl-2-related protein A1): > 20 µM (inactive)
IC50 [3]: 18.3 µM (active)

CCOC(=O)CSc1nc(C2CC2)nc2ccccc12
IC50 [4]: > 66 µM (inactive)
IC50 [5]: > 66 µM (inactive)
IC50 [6]: > 69.5 µM (not active)

O=C(CCl)/N=c1\sccn1Cc1cccc2ccccc12
IC50 [7]: 0.224 µM (active)
AC50 (Paired box protein Pax-8): 0.572 µM (active)
AC50 [8]: 1.66 µM (active)

Cc1ccc(/N=C/c2cc(Cc3ccccc3Cl)cc([N+](=O)[O-])c2O)c(O)c1
IC50 [9]: 9.13 µM (active)
IC50 (Hexokinase HKDC1): 28.5 µM (inactive)
AC50 [10]: 1.61 µM (active)
IC50 (Bcl-2-like protein 1): 7.22 µM (active)
EC50 [11]: 11.3 µM (active)
EC50 [12]: 1.78 µM (active)

Cc1cc(C(=O)Cn2cncn2)c(C)n1CCc1ccc(F)cc1
EC50 [13]: > 50 µM (active)
IC50 [14]: > 100 µM (active)

O=C(Nc1ccccc1)c1nnsc1S(=O)(=O)c1ccc(Cl)cc1
IC50 [15]: 3.5 µM (active)
IC50 (Fatty acid synthase [16]): 8 µM (active)
IC50 [17]: 23.4 µM (not active)
AC50 [18]: 3.53 µM (active)
CC50 [19]: 13.4 µM (active)
IC50 (Fatty acid synthase [20]): 5.14 µM (active)
IC50 [21]: 1.04 µM (active)
AC50 [10]: 0.293 µM (active)
EC50 (Protein RecA): 5.71 µM (active)
IC50 (Beta Lactamase): 18.8 µM (inactive)
EC50 [11]: 9.03 µM (active)
IC50 [22]: 11.2 µM (not active)
EC50 [12]: > 38 µM (not active)
